Test results taken from PMC9916883, “Betaine- and L-Carnitine-Based Ionic Liquids as Solubilising and Stabilising Agents for the Formulation of Antimicrobial Eye Drops Containing Diacerein” (International Journal of Molecular Sciences, 2023).
Converted amounts (≈) assume the structure as drawn. “Also recorded” adds a separate entry of the source. Read-outs that look alike come from different tables or passages of the source.

Key:
[1] = Phase solubility study (apparent solubility of DIA and Rhe with ILs or HP-β-CD); assay type: physicochemical; conditions: 25 °C, thermodynamic from solid, read-out: saturation solubility
Method: The increase in the apparent solubility of both DIA and Rhe in the presence of the ILs was evaluated. Briefly, aqueous solutions of the ILs were prepared in the range of 0–200 mg/mL, and an excess of either DIA or Rhe was added to each vial. The samples were then incubated for 30 min at 25°C, and the undissolved drug was removed by centrifugation at […] for 15 min (Hettich Mikro 120 centrifuge). […] The drug concentration was measured by UV–Vis analysis. The DIA phase solubility study was also compared to the phase solubility study of DIA in the presence of HP-β-CD as a reference solubility/stability-enhancing excipient. […] The complexation K was calculated through Higuchi and Connors’ method, as previously reported.
The size distribution and zeta potential values of the ILs’ aggregates in aqueous solutions were evaluated by using a Zetasizer Nano ZS (Malvern) at 25 °C. The samples were prepared by adding an excess of either DIA or Rhe (5 mg/mL) to the aqueous IL solutions, incubating them for 30 min at 25 °C, and finally removing the excess drugs by centrifugation. […] In contrast, for PB solutions, the solutions were prepared in water, and […] of 100 mM pH 7 phosphate buffer was added per 1 mL of aqueous solution, directly in the cuvette, before the dynamic light scattering (DLS) analysis started. The concentrations of the solubilised drug were determined by UV–Vis analysis.

[2] = system: S. aureus (clinical isolate W4); assay: MIC determination (microdilution); assay type: cell-based, Staphylococcus aureus
Method: A clinical isolate of S. aureus (W4) and the reference strain of P. aeruginosa ATCC 27853 were used in the study. For the preparation of stock cultures, bacterial strains were grown in Luria–Bertani broth (LB, Oxoid, Basingstoke, Hampshire, UK) until the late-log phase, subdivided into aliquots, and kept frozen at −80 °C until use. Identification and susceptibility testing of the S. aureus W4 strain were performed using MALDI-TOF (Bruker Daltonics, Bremen, Germany) and the BD Phoenix susceptibility testing system (BD, Milan, Italy), respectively.
The susceptibility of the bacterial strains to each of the tested compounds was assessed in terms of MIC values according to the standard microdilution method (Clinical and Laboratory Standards Institute–CLSI, 2018), with some modifications. Briefly, the bacteria were grown in LB broth until the exponential growth phase and then diluted in the same medium to reach a final density of 5 × 10^6 CFU/mL. A volume of 10 μL of the bacterial suspensions was added to 90 μL of LB in a 96-well plate in the absence (viability control) or presence of the test compound at different concentrations.

[3] = system: S. aureus W4; assay: Killing assay; assay type: cell-based, Staphylococcus aureus; conditions: 3 h incubation in 5% TSB; DIA 0.34 M, ILs 0.27 M
Method: (§1) To this end, the bacterial strains were grown in TSB until the exponential phase, and approximately 5 × 10^4 CFU/mL-contained in 10 μL-was added to 5 μL of TSB, 35 μL of water, and 50 μL of one of the following solutions corresponding to the eye drop compositions tested in vivo: Bet6 or Carn6 with 0.27 M or 0.34 M DIA, plain DIA (0.34 M) solution, or plain Bet6/plain Carn6, both at 0.27 M. All solutions were prepared in CB. The samples were incubated at 37 °C with shaking for 3 h. A sample containing 0.6% DMSO (corresponding to the highest concentration of DMSO tested) was used as a control. Following incubation, the samples were diluted 10-fold in LB and plated on tryptone soy agar (TSA, Oxoid) to determine the number of CFU. Bactericidal activity was defined as a reduction of at least 3 Log10 in the number of viable bacteria as compared to the inoculum.

[4] = system: P. aeruginosa ATCC 27853; assay: Killing assay; assay type: cell-based, Pseudomonas aeruginosa; conditions: 3 h incubation in 5% TSB; DIA 0.34 M, ILs 0.27 M
Method: as §1

[5] = Modified Draize test (ocular irritation); assay type: in vivo, New Zealand albino rabbits; conditions: single eye drop instillation, rabbit; observed 0.5-6 h
Method: Male New Zealand albino rabbits weighing approximately 2.6-3 Kg, kept in standard housing conditions, were used for in vivo studies. The animals were treated as prescribed in the guidelines of the European Community Council Directive 2010/63. The animal protocol was approved by the Italian Ministry of University and Research (authorisation n. 192/2019-PR). The eye drops were prepared in CB (200 mOsm/kg). […] (588 mOsm/kg). A suspension of plain DIA (0.34 M) in CB was used as a reference sample (230 mOsm/kg). The samples' osmolality was checked using a Roebling osmometer (calibrated with NaCl 300 mOsm/kg H2O). To assess the irritation of the rabbits' eyes after instillation of the eye drops under study, a modified Draize test was performed, following the procedure previously described in [50]. This irritation test was conducted using a 0 (absence) to 3 (maximum) clinical rating scale for lachrymation, oedema, and conjunctival redness. For each of the samples under study, the test was performed on three rabbits, through a single instillation of the eye drops (50 μL) per rabbit eye, while the untreated contralateral eye was used as a control. […] An overall irritation index (Iirr) was calculated by adding the total clinical evaluation scores for each observation time. A score of 2 or 3 in any category or an Iirr greater than 4 was considered an indicator of clinically significant irritation.

[6] = DIA elimination and degradation kinetics in tear fluid; assay type: in vivo, New Zealand albino rabbits; conditions: one drop (50 μL), 0.27 M IL, n = 10
Method: Male New Zealand albino rabbits weighing approximately 2.6–3 Kg, kept in standard housing conditions, were used for in vivo studies. The animals were treated as prescribed in the guidelines of the European Community Council Directive 2010/63. The animal protocol was approved by the Italian Ministry of University and Research (authorisation n. 192/2019-PR). The eye drops were prepared in CB (200 mOsm/kg). […] A suspension of plain DIA (0.34 M) in CB was used as a reference sample (230 mOsm/kg). The samples’ osmolality was checked using a Roebling osmometer (calibrated with NaCl 300 mOsm/kg H2O).
[…] CB was used as blank control. At predefined intervals (i.e., 2, 4, 6, 8, 10, 15, 20, 25, and 30 min from instillation), tear fluid samples were taken from the lower margin strip using 1 µL disposable glass capillaries (Microcaps, Drummond Scientific Co., USA), which were washed with 1 µL and diluted with 100 µL of CB. The diluted samples were analysed by HPLC. […] For each of the three formulations studied, elimination curves were constructed, each determined from a single eye of different rabbits.

Work on `CC(=O)Oc1cccc2c1C(=O)c1c(OC(C)=O)cc(C(=O)O)cc1C2=O` [DIA, diacerein] yielded a solubility at 30 min ([1]; Bet6 solutions in citrate buffer, pH 5, aqueous with cosolvent or surfactant or cyclodextrin, in Bet6 solutions) of 1350 µg/mL (≈ 3670 µM), a solubility at 30 min ([1]; aqueous Carn6 solutions, aqueous with cosolvent or surfactant or cyclodextrin, in Carn6 solutions) of 680 µg/mL (≈ 1850 µM) and an MIC ([2]; Staphylococcus aureus, planktonic cells, 24 h, 37 °C) of 50 µg/mL (≈ 136 µM). For the same compound, the antibacterial effect ([2]; in words (discussion)) was “exert antibacterial effects”, the bactericidal effect [3] was “no evident bactericidal effect” and the bactericidal effect [4] was “no evident bactericidal effect”. For the same compound, the “ocular irritation signs (conjunctival redness, chemosis/oedema, secretion)” value [5] was “modest redness of the conjunctiva and a slight conjunctival chemosis, but no secretion; also recorded: No redness, secretions, or conjunctival oedema”, the MRT ([6]; male, New Zealand albino, topical, 50 µL (one drop) of 0.34 M DIA, DIA in rabbit tear fluid) was 4.55 min and the “AUC (DIA concentration in tear fluid vs time)” value ([6]; rabbit tear fluid, 0.34 M DIA) was 0.06 ± 0.002.
